# Where two headings read alike, the source gives them in different places. Where no end group is shown, it is not given here.
# How the values were obtained:
# [1] = Thermogravimetric analysis overlaid with DSC; settings: after boiling at ~190 °C (melting at ~130 °C)
# Description: Thermogravimetric Analysis (TGA) was performed for ammonium acetate and ammonium TFA using a TA Thermogravimetric Analyzer Q500 (TA, Instruments, New Castle, DE, USA). Standard aluminum pans were filled with about 5–7 mg of powder. Temperature ramp experiments were performed from 30 °C to 300 °C at a rate of 5 °C·min^−1 with a nitrogen purge at 50 mL·min^−1.
# Differential scanning calorimetry (DSC) analysis was performed using a TA Instruments 175 Model Auto Q20 DSC. Samples of 5–7 mg were weighed and placed into standard aluminum pans. The scans were performed at a ramp rate of 5 °C·min^−1 in the range of 30–300 °C. During the analyses, high-purity nitrogen flowed through the sample chamber at a rate of 50 mL·min^−1.
# [2] = cited from earlier work
# physchem = type: physicochemical
# Description: The samples were shaken on a vortex mixer for 5 min and on an orbital shaker at 100 rpm for 3 h. The samples were collected and centrifuged at 12,000 rpm for 15 min. The supernatants of the samples were collected and analyzed using HPLC as described in Section 2.6 below.
# (§1) CSP7 was chemically analyzed with a Thermo Scientific™ Dionex™ UltiMate™ 3000 HPLC System (Thermo Scientific, Sunnyvale, CA, USA) with a wavelength of 220 nm. The two mobile phases were designated Phase A (0.1% trifluoroacetic acid in water) and Phase B (0.09% trifluoroacetic acid in a mixture of 20:80 water and acetonitrile). The HPLC gradient that operated at 1.0 mL·min^−1 ran from 25% to 35% for mobile Phase B for 20 min then equilibrated at 25% for 5 min. An Ultimate 3000 Autosampler was utilized to inject 20 μL samples. Injections were passed through a Phenomenex® Luna 5 μm C18(2) 100 Å, 150 mm × 4.6 mm (Phenomenex, Torrance, CA, USA), maintained at ambient temperature. The retention time of CSP7 was approximately 8.3 min. The standard curve of the CSP7 (concentrations of 0.015625–1.00 mg·mL^−1) were prepared. All analyses maintained linearity in the range tested. Chromeleon Version 6.80 software (Thermo Scientific) was used to process all chromatography data.
# [3] = Water sorption-desorption isotherm (dynamic vapor sorption); type: physicochemical; settings: bulk powder, 25 °C, sorption-desorption cycle
# Description: Water sorption isotherms at 25 °C were determined for lyophilized formulations using a dynamic vapor sorption (DVS-1) microbalance (Surface Measurement Systems, London, UK). A quartz pan was filled with about 8–10 mg of powder. Samples were dried with nitrogen gas until a baseline was established less than 0.002% change in dm/dt for 120 min. Each formulation was run through a full sorption-desorption cycle from 0% to 90% RH in steps of 10% RH at 25 °C. Humidity was increased/decreased by 10% after equilibrium was reached, as determined by a dm/dt less than 0.0075% within an interval of 5 min. Sorption-desorption isotherms were calculated and plotted based on their percent change in mass compared to the initial dry formulation weight (Equation (2)):(2) % Mass sorption/desorption =(Increase or decrease in mass from water sorption/desorption/mass of dry powder at initial equilibration (0% RH))× 100
# [4] = type: physicochemical; settings: DPBS; for Recovery of CSP7 in the aggregates / Recovery of CSP7 in the supernatant: 12 h shaking
# Description: (§2) The peptide solution was prepared in DPBS and TBS at 0.5 mg·ml^−1 of free peptide. The ammonium hydroxide was added to the solution to dissolve the peptide until a clear solution was obtained.
# The peptide solutions were shaken on a VWR standard orbital shaker model 1000 (Radnor, PA, USA) at 200 rpm at 5 °C and 25 °C. The samples were collected at 0.5, 1, 3, 6, and 12 h, and they were analyzed using HPLC as described in Section 2.6 below. The CSP7 aggregates were also collected and analyzed using ^1H-NMR as described in Section 2.14 below.
# as §1
# [5] = Molar ratio of counterions to CSP7 by solution 1H/19F NMR; type: physicochemical; settings: bulk powder, initial vs after exposure to 90% RH, Equation (6)
# Description: We acquired ^1H-NMR spectra using a Varian® NMR 600 MHz Spectrometer (Agilent Inc., Palo Alto, CA, USA) at 25 °C. The lyophilized samples were reconstituted in deuterium oxide at 1.0 mg·mL^−1. We added 5 μL of 1 N NaOH/D2O was added to the sample to dissolve the peptides. Solutions were then transferred to 5 mm NMR tubes for NMR data acquisition. Chemical shifts were referenced to a residual solvent, H2O, at 4.61 ppm. At this time, the ^1H-NMR spectra were acquired using an Agilent Direct Drive 600 spectrometer, operating at a proton frequency of 599.75 MHz (14.1 T) at 298 K, equipped with an AutoX DB probe. All ^1H-NMR spectra were recorded in D2O after 128 cycles for each sample. The molar ratio of counterion to peptide was calculated according to the peak area of the methyl group of CSP7 (0.85, 0.93, and 1.03 ppm; 18 H atoms in total) and the methyl group of the acetate counterion (1.75 ppm; 3 H atoms). […]
# We acquired ^19F-NMR spectra using a Varian® NMR 600 MHz Spectrometer (Agilent Inc., Palo Alto, CA, USA) at 25 °C. […] All ^19F NMR spectra were recorded in D2O after 512 cycles for each sample. The molar ratio of counterion to peptide was calculated according to the peak area of fluorine atoms of the trifluoroacetate counterion (−75.5 ppm, 3 F atoms) and the […] (−107.7, −110.9, and −133.5 ppm; 1F atom each). […]
# [6] = type: physicochemical
# Description: as §2
# Freeze-thaw cycles were studied at −20 °C and −80 °C. The peptide solutions were frozen at each temperature for 1 h and then thawed at room temperature (25 °C) for 1 h. The freeze-thaw cycle was repeated for 5 cycles. The samples were collected at the end of each cycle and analyzed using HPLC as described in Section 2.6 below.
# as §1
# [7] = Solution storage stability (HPLC recovery); type: physicochemical
# Description: as §2
# The peptide solutions were stored at −80 °C, −20 °C, 2−8 °C, and at room temperature (25 °C). The samples were collected after 24 h and 48 h and analyzed using HPLC as described in Section 2.6 below.
# as §1
compound,measurement,setting,value
N.O=C(O)C(F)(F)F [ammonium TFA],Mass remaining in TGA,[1],0%
CC(=O)O.N [ammonium acetate],Vapor pressure,[2]; at 25 °C,13.9 mm Hg
same,Boiling point,[2],138.5 °C
FTTFTVT [CSP7 TFA],Solubility,"physchem; 3 h, pH 10",4134 ± 320 µg/mL
same,solubility at 3 h,"physchem; pH 8, Solubility",1220 ± 24 µg/mL
same,Decrease in weight in moisture desorption isotherm compared to initial weight,[3],no change in weight
FTTFTVT [CSP7 acetate],solubility at 3 h,"physchem; pH 2, Solubility",701 ± 153 µg/mL
same,solubility at 3 h,"physchem; pH 3.5, Solubility",241 ± 7 µg/mL
same,solubility at 3 h,"physchem; pH 4.5, Solubility",160 ± 3 µg/mL
same,solubility at 3 h,"physchem; pH 5.5, Solubility",174 ± 16 µg/mL
same,solubility at 3 h,"physchem; pH 6.5, Solubility",178 ± 13 µg/mL
same,solubility at 3 h,"physchem; pH 7.5, Solubility",347 ± 14 µg/mL
same,solubility at 3 h,"physchem; pH 10, Solubility",2880 ± 201 µg/mL
same,Recovery of CSP7 in the aggregates,[4]; 5 °C,31.7 ± 2.3%
same,Recovery of CSP7 in the supernatant,[4]; 5 °C,67.8 ± 5.8%
same,Recovery of CSP7 in the aggregates,[4]; 25 °C,38.3 ± 2.8%
same,Recovery of CSP7 in the supernatant,[4]; 25 °C,59.7 ± 1.5%
same,Shaking time after which peptide aggregation was found,"[4]; orbital shaker, 5 °C and 25 °C",6 h
same,Percentage of mass loss calculated from NMR molar ratios of acetate to CSP7,[5],6.37%
same,Decrease in weight in moisture desorption isotherm compared to initial weight,[3],6.36%
same,CSP7 remaining in DPBS and TBS,[6],about 100%
same,Recovery in bulk solution after freeze-thaw,"[6]; DPBS, −20 °C, cycle 1",100.3 ± 0.2%
same,Recovery in bulk solution after freeze-thaw,"[6]; DPBS, −20 °C, cycle 2",100.7 ± 0.1%
same,Recovery in bulk solution after freeze-thaw,"[6]; DPBS, −20 °C, cycle 3",100.7 ± 0.1%
same,Recovery in bulk solution after freeze-thaw,"[6]; DPBS, −20 °C, cycle 4",101.0 ± 0.2%
same,Recovery in bulk solution after freeze-thaw,"[6]; DPBS, −20 °C, cycle 5",101.3 ± 0.2%
same,Recovery in bulk solution after freeze-thaw,"[6]; DPBS, −80 °C, cycle 1",99.8 ± 0.2%
same,Recovery in bulk solution after freeze-thaw,"[6]; DPBS, −80 °C, cycle 2",100.1 ± 0.1%
same,Recovery in bulk solution after freeze-thaw,"[6]; DPBS, −80 °C, cycle 3",100.2 ± 0.2%
same,Recovery in bulk solution after freeze-thaw,"[6]; DPBS, −80 °C, cycle 4",100.4 ± 0.1%
same,Recovery in bulk solution after freeze-thaw,"[6]; DPBS, −80 °C, cycle 5",100.9 ± 0.1%
same,Recovery in bulk solution after freeze-thaw,"[6]; TBS, −20 °C, cycle 1",99.4 ± 0.3%
same,Recovery in bulk solution after freeze-thaw,"[6]; TBS, −20 °C, cycle 2",99.6 ± 0.1%
same,Recovery in bulk solution after freeze-thaw,"[6]; TBS, −20 °C, cycle 3",99.7 ± 0.2%
same,Recovery in bulk solution after freeze-thaw,"[6]; TBS, −20 °C, cycle 4",99.8 ± 0.2%
same,Recovery in bulk solution after freeze-thaw,"[6]; TBS, −20 °C, cycle 5",100.2 ± 0.1%
same,Recovery in bulk solution after freeze-thaw,"[6]; TBS, −80 °C, cycle 1",99.9 ± 0.3%
same,Recovery in bulk solution after freeze-thaw,"[6]; TBS, −80 °C, cycle 2",100.3 ± 0.2%
same,Recovery in bulk solution after freeze-thaw,"[6]; TBS, −80 °C, cycle 3",100.4 ± 0.2%
same,Recovery in bulk solution after freeze-thaw,"[6]; TBS, −80 °C, cycle 4",100.7 ± 0.2%
same,Recovery in bulk solution after freeze-thaw,"[6]; TBS, −80 °C, cycle 5",100.6 ± 0.4%
same,Recovery in bulk solution after storage,"[7]; DPBS, 24 h, 5 °C",99.9 ± 0.1%
same,Recovery in bulk solution after storage,"[7]; DPBS, 24 h, 25 °C",100.1 ± 0.1%
same,Recovery in bulk solution after storage,"[7]; DPBS, 24 h, −20 °C",100.2 ± 0.8%
same,Recovery in bulk solution after storage,"[7]; DPBS, 24 h, −80 °C",100.0 ± 0.1%
same,Recovery in bulk solution after storage,"[7]; DPBS, 48 h, 5 °C",99.9 ± 0.1%
same,Recovery in bulk solution after storage,"[7]; DPBS, 48 h, 25 °C",99.9 ± 0.3%
same,Recovery in bulk solution after storage,"[7]; DPBS, 48 h, −20 °C",100.3 ± 0.7%
same,Recovery in bulk solution after storage,"[7]; DPBS, 48 h, −80 °C",100.0 ± 0.1%
same,Recovery in bulk solution after storage,"[7]; TBS, 24 h, 5 °C",100.1 ± 0.2%
same,Recovery in bulk solution after storage,"[7]; TBS, 24 h, 25 °C",100.2 ± 0.3%
same,Recovery in bulk solution after storage,"[7]; TBS, 24 h, −20 °C",100.2 ± 0.2%
same,Recovery in bulk solution after storage,"[7]; TBS, 24 h, −80 °C",100.1 ± 0.2%
same,Recovery in bulk solution after storage,"[7]; TBS, 48 h, 5 °C",100.1 ± 0.1%
same,Recovery in bulk solution after storage,"[7]; TBS, 48 h, 25 °C",100.3 ± 0.1%
same,Recovery in bulk solution after storage,"[7]; TBS, 48 h, −20 °C",100.5 ± 0.2%
same,Recovery in bulk solution after storage,"[7]; TBS, 48 h, −80 °C",100.5 ± 0.4%
same,Recovery of CSP7 in DPBS and TBS,"[7]; after 48 h storage at −80 °C, −20 °C, 5 °C and 25 °C",about 100%

# Reference: paper PMC6835953, “Formulation Composition and Process Affect Counterion for CSP7 Peptide” (Pharmaceutics, 2019)
